Columns and labels:
[1] = tested on: IL-1β; test: Effect on IL-1β expression in LPS-stimulated RAW 264.7 macrophages; assay type: cell-based; settings: RAW 264.7 mouse macrophages, dosed at 50 μM and 100 μM, 100 ng/ml LPS stimulation, FIG. 1
Experimental: RAW264.7 macrophages were seeded at a density of 100,000 cells/well in a 96-well plate in DMEM supplemented with 10% FBS and Penn/strep. 16 hours later, medium was aspirated and replaced with 90 μL/well of serum-free DMEM. Test compounds were brought up in 100% EtOH to a concentration of 100 mM and then diluted 1:100 in 100% FBS for a stock solution consisting of 1mM compound and 1% EtOH. These stock solutions were then diluted 1:10 in FBS supplemented with 1% EtOH to generate a 100 μM of the test compounds. 10 μL was then added to the RAW246.7 cells to generate final concentrations consisting of 10 μM of the fatty acid mycophenolate conjugate, along with vehicle only control. The compounds were allowed to pre-incubate for 2 hours before stimulation of 100 ng/ml LPS (10 μL of 1 μg/ml LPS was added to each well). Following 3 hours of LPS stimulation, cells were washed once in 1 ×PBS, aspirated dry, and flash frozen in liquid nitrogen. RNA was then isolated and converted to cDNA using the Cells to cDNA kit (Ambion) according to the manufacturer's protocol. IL-1β transcript levels were then measured using Taqman primer/probe assay sets (Applied Biosystems), normalized to GAPDH using the deltaCt method, and the data expressed relative to vehicle only control. FIG. 1 summarizes the effects of compounds I-1, I-2, I-5, and I-10 on the expression of IL-1β in RAW 264.7 mouse macrophages. All four compounds were dosed at 50 μM and 100 μM.

[2] = tested on: SLE-prone MRLlpr/lpr mice; settings: 100 mg/kg in drinking water; cited from earlier work
[3] = tested on: systemic lupus erythematosus patients; settings: mean dose of 1,328 mg/a day over a 1 or 2 year period; cited from earlier work
[4] = tested on: (NZB X NZW)F1 mouse model of systemic lupus erythematosus; settings: 200 mg/kg/day over a 6 week period; cited from earlier work

| SMILES | IL-1β expression (transcript level relative to vehicle only control) [1] | survival, C3 deposition in glomeruli, albuminuria and haematuria [2] | disease flares [3] | autoimmunity and mortality [4] |
| --- | --- | --- | --- | --- |
| CC/C=C\C/C=C\C/C=C\C/C=C\C/C=C\C/C=C\CCC(=O)NCCOCCNC(=O)CC/C(C)=C/Cc1c(O)c2c(c(C)c1OC)COC2=O [Compound I-2, (4Z,7Z,10Z,13Z,16Z,19Z)-N-(2-(2((E)-6-(4-hydroxy-6-methoxy-7-methyl-3-oxo-1,3-dihydroisobenzofuran-5-yl)-4-methylhex-4-enamido)ethoxy)ethyl)docosa-4,7,10,13,16,19-hexaenamide] | statistically significant decrease in IL-1β expression | – | – | – |
| CC/C=C\C/C=C\C/C=C\C/C=C\C/C=C\C/C=C\CCC(=O)NCCSSCCNC(=O)CC/C(C)=C/Cc1c(O)c2c(c(C)c1OC)COC2=O [Compound I-5, (4Z,7Z,10Z,13Z,16Z,19Z)-N-(2-(2-(2-((E)-6-(4-hydroxy-6-methoxy-7-methyl-3-oxo-1,3-dihydroisobenzofuran-5-yl)-4-methylhex-4-enamido)ethyl)disulfanyl)ethyl)docosa-4,7,10,13,16,19-hexaenamide] | statistically significant decrease in IL-1β expression | – | – | – |
| CC/C=C\C/C=C\C/C=C\C/C=C\C/C=C\C/C=C\CCC(=O)NCCNC(=O)CC/C(C)=C/Cc1c(O)c2c(c(C)c1OC)COC2=O [Compound I-1, (4Z,7Z,10Z,13Z,16Z,19Z)-N-(2((E)-6-(4-hydroxy-6-methoxy-7-methyl-3-oxo-1,3-dihydroisobenzofuran-5-yl)-4-methylhex-4-enamido)ethyl)docosa-4,7,10,13,16,19-hexaenamide] | statistically significant decrease in IL-1β expression | – | – | – |
| COc1c(C)c2c(c(O)c1C/C=C(\C)CCC(=O)OCCN1CCOCC1)C(=O)OC2 [mycophenolate mofetil] | – | able to prolong survival, reduce the extent of deposition of C3 in glomeruli and reduce the occurrence of albuminuria and haematuria | effective in reducing disease flares | able to suppress autoimmunity and mortality |
| CC/C=C\C/C=C\C/C=C\C/C=C\C/C=C\CCCC(=O)NCCNC(=O)CC/C(C)=C/Cc1c(O)c2c(c(C)c1OC)COC2=O [Compound I-10, (5Z,8Z,11Z,14Z,17Z)-N-(2-((E)-6-(4-hydroxy-6-methoxy-7-methyl-3-oxo-1,3-dihydroisobenzofuran-5-yl)-4-methylhex-4-enamido)ethyl)icosa-5,8,11,14,17-pentaenamide] | statistically significant decrease in IL-1β expression | – | – | – |

— patent publication US20110213028A1, “FATTY ACID MYCOPHENOLATE DERIVATIVES AND THEIR USES” (CATABASIS PHARMACEUTICALS, INC., priority 2010, published 2011)
